Key:
[1] = system: human pancreatic adenocarcinomas; type: in vivo; conditions: for % of CD44+c-Met+ cancer stem cells in tumor: flow cytometry after 4 weeks treatment; for tumor growth during the 4 week period of treatment: subcutaneous tumor volume, weekly, FIG. 8B; for effect on cancer stem cell population (in words): CD44+c-Met+, flow cytometry; for tumor growth following cessation of treatment: versus untreated tumors
Description: Samples of human pancreatic adenocarcinomas were obtained. Within 60 minutes following surgical resection, tumors were suspended in sterile RPMI medium 1640 (available from Sigma-Aldrich®), mechanically dissociated using scissors, then minced with a sterile scalpel blade over ice to yield 2×2 mm pieces. The tumor pieces were washed with serum-free PBS before implantation. Eight-week-old male NOD/SCID mice were anesthetized using an i.p. injection of 100 mg/kg ketamine and 5 mg/kg xylazine. NOD/SCID mice are publically available from Charles River Laboratories International in Wilmington, Mass. A 5-mm incision was then made in the skin overlying the mid-abdomen, and three pieces of tumor were implanted subcutaneously. The skin incision was closed with absorbable suture. The mice were monitored weekly for tumor growth for 16 to 20 weeks. After establishment of xenografts, studies were performed on passage 2 tumors.
Xenograft tumors or primary human tumors were cut up into small pieces with scissors, and then minced completely using sterile scalpel blades. To obtain single cell suspensions, the resultant minced tumor pieces were mixed with ultra-pure collagenase IV (Worthington Biochemical, Lakewood, N.J.) in medium 199 (200 units of collagenase per ml) and allowed to incubate at 37° C. for 1 to 1.5 hours for enzymatic dissociation. The specimens were further mechanically dissociated every 10 minutes by pipetting with a 10-ml pipette. At the end of the incubation, cells were filtered through a 40-μm nylon mesh, washed with HBSS/20% FBS, and then washed twice with HBSS.
Sorted cells or bulk pancreatic tumor cells were washed with serum free HBSS and suspended in serum free-RPMI1640/Matrigel mixture (1:1 volume), followed by injection into the subcutaneous tissue of the right and left mid-abdominal area using a 27-gauge needle. In separate experiments, mice were anesthetized with an i.p. injection of 100 mg/kg ketamine and 5 mg/kg xylazine, and a small median laparotomy was performed. Five thousand sorted cells or 1-5×10^5 bulk tumor cells resuspended in PBS/Matrigel mixture (1:1) in a volume of 100 µl were injected into the tail of the pancreas using a 30-gauge needle. PBS stands for phosphate buffered saline, which can be obtained from Thermo Fisher Scientific Inc. Six mice were inoculated per test group. Animals then underwent autopsy, and tumor growth was accessed after 4 to 8 weeks. Tissues were fixed in formaldehyde and were examined histologically or dissociated to generate single cell suspensions for further study.
[…]. CD44 and c-Met are both markers on pancreatic cancer stem cells.
. Subcutaneous tumor volume was assessed weekly. […] Half of the mice in each group were euthanized 4 weeks after initiation of treatment, and the tumors were dissociated and examined using flow cytometry to determine the percentage of c-Met+/CD44+ cancer stem cells within the tumors. The remaining mice were kept for an additional 8 weeks following cessation of treatment, and tumor volume was measured weekly. […]. […]. […]
Tumor size was measured weekly. Three mice of each group were euthanized after 4 weeks treatment for analysis of cancer stem cells, and the other mice were followed to monitor tumor growth for an additional 8 weeks. […] In FIG. 8B, the average tumor size±SEM from three separate tumors is presented. FIG. 8C depicts a graph of CSC percentage in different treatment groups. The percentage of the c-Met+/CD44+ tumorigenic cancer cell population in the total cancer cell population is indicated for each treatment.

[2] = system: primary human pancreatic cancer; test: Orthotopic implants of primary human pancreatic cancer in the pancreatic tail of NOD/SCID mice: bioluminescent tumor growth and cancer stem cells; type: in vivo; conditions: for effect on cancer stem cell population (in words): CD44+CD24+ESA+; for effect on cancer stem cell population (in words) / % of CD44+CD24+ESA+ cancer stem cells in tumor: flow cytometry; for % of CD44+CD24+ESA+ cancer stem cells in tumor: table title says subcutaneous xenograft tumor, text cites it for orthotopic implants; for tumor growth during the 4 week treatment: orthotopic tumors, bioluminescent imaging, versus controls
Description: Sorted cells or bulk pancreatic tumor cells were washed with serum free HBSS and suspended in serum free-RPMI1640/Matrigel mixture (1:1 volume), followed by injection into the subcutaneous tissue of the right and left mid-abdominal area using a 27-gauge needle. In separate experiments, mice were anesthetized with an i.p. injection of 100 mg/kg ketamine and 5 mg/kg xylazine, and a small median laparotomy was performed. Five thousand sorted cells or 1-5×10^5 bulk tumor cells resuspended in PBS/Matrigel mixture (1:1) in a volume of 100 µl were injected into the tail of the pancreas using a 30-gauge needle. […] Animals then underwent autopsy, and tumor growth was accessed after 4 to 8 weeks.
To validate the findings with bioluminescent imaging, mice were euthanized with carbon dioxide inhalation, and autopsies were performed to assess the extent of primary tumor growth and metastasis.
The same three pancreatic cancers used for the subcutaneous tumor implantation experiments were infected with a lentivirus expressing luciferase to allow imaging in real time, and cells were injected into the pancreatic tail.
Tumor size and volume were measured weekly using Xenogen IVIS 200 imaging system throughout the experiment period.

[3] = Compound 1 30 mg/kg/day, GEM 100 mg/kg/twice weekly

Row | Compound | % of CD44+c-Met+ cancer stem cells in tumor [1, 3] [%] | tumor growth during the 4 week period of treatment [1] | decrease in CD44+c-Met+ cancer stem cell population ([1]; subcutaneous tumors, 4 weeks treatment, Compound 1 30 mg/kg/day, GEM 100 mg/kg/twice weekly) [%] | effect on cancer stem cell population (in words) ([1]; subcutaneous tumors) | tumor growth following cessation of treatment ([1]; subcutaneous tumors) | effect on cancer stem cell population (in words) [2] | % of CD44+CD24+ESA+ cancer stem cells in tumor [2] [%] | tumor growth during the 4 week treatment [2] | increase of the c-Met+CD44+ population ([1]; subcutaneous tumors, 4 weeks treatment, GEM 100 mg/kg/twice weekly) [%]
1 | COc1cc2nccc(Oc3ccc(NC(=O)C4(C(=O)Nc5ccc(F)cc5)CC4)cc3)c2cc1OC [Compound 1, N-(4-{[6,7-bis(methyloxy)quinolin-4-yl]oxy}phenyl)-N′-(4-fluorophenyl)cyclopropane-1,1-dicarboxamide] | 0.55 | significantly inhibited tumor growth | 83±3 | significantly depleted | grew more slowly than the untreated tumors | significantly depleted | 0.61 | prevented tumor growth | –
2 | Nc1ccn([C@@H]2O[C@H](CO)[C@@H](O)C2(F)F)c(=O)n1 [GEM, gemcitabine] | 4.34 | significantly inhibited tumor growth | – | increases in the total number of pancreatic cancer stem cells | grew more slowly than the untreated tumors | increases in the total number of pancreatic cancer stem cells | 4.3 | prevented tumor growth | 48±20

Reference: patent US20150202196A1, “Methods of Using C-Met Modulators” (priority 2010, published 2015)
